For 9 compounds, MIC results are on record in patent US4656166A, “Antibiotic compounds derived from cephalosporins, process for their production and pharmaceutical compositions” (Sanofi, priority 1983, dated 1987).

≈ marks a conversion by molar mass, not a printed value.

Type in all cases: cell-based
The subject of one assay is Citrobacter RL 49. The assay can be described thus: MIC, in vitro dilution method, Citrobacter RL 49 (Table III). As to conditions: RL49; Citrobacter RL 49; dilution method; read-out: MIC. From the text:
(§1) The products of the invention have been studied as regards their pharmacological properties and, more especially, bacteriostatic action. This has been determined in vitro by the dilution method, and the study was on Gram negative strains.
(§2) Results, expressed in minimum inhibiting concentrations (MIC-- μg/ml), are collected in the following table (Table III).

Assay [1] relates to Proteus vulgaris RL 99 bis. In words: MIC, in vitro dilution method, Proteus vulgaris RL 99 bis (Table III). The conditions noted are these: RL99BIS; Proteus vulgaris RL 99 bis; dilution method; read-out: MIC.
Source text: as §1, §2

The test system of a further assay is Klebsiella RO 30. The assay can be described thus: MIC, in vitro dilution method, Klebsiella RO 30 (Table III). As to conditions: RO30; Klebsiella RO 30; dilution method; read-out: MIC. Put shortly: (§3)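 Bacteriostatic activity was determined in vitro by the dilution method against Gram-negative strains. Values are minimum inhibitory concentrations in μg/ml.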
Another assay deals with Escherichia coli 255/L.7. The assay can be described thus: MIC on strain not producing beta-lactamase, Escherichia coli 255/L.7 (Table IV). The conditions noted are these: Escherichia coli 255/L.7 *, not producing beta-lactamases; read-out: MIC. As to the method: (§4) To evaluate the stability of these products towards beta-lactamases, their MIC was determined on isogenic strains producing and not producing beta-lactamases.
(§5) The results are expressed in μg/ml in Table IV.

Another assay deals with Pseudomonas RL 112. In words: MIC, in vitro dilution method, Pseudomonas RL 112 (Table III). As to conditions: RL112. The method, boiled down:
as §3

Assay [2] concerns Proteus vulgaris GN 76/C.1. The assay can be described thus: MIC on beta-lactamase producing strain Proteus vulgaris GN 76/C.1 (Table IV). As to conditions: GN76; Proteus vulgaris GN 76/C.1, producing beta-lactamases; read-out: MIC. As to the method:
as §4, §5

Assay [3] deals with Serrtia liquefaciens SL 1326 S. The assay can be described thus: MIC on strain not producing beta-lactamase, Serratia liquefaciens SL 1326 S (Table IV). The conditions noted are these: SL1326S, not producing beta-lactamases. As to the method:
as §4, §5

The test system of the next assay is Serratia RL 72. In words: MIC, in vitro dilution method, Serratia RL 72 (Table III). The conditions noted are these: RL72.
Source text: as §1, §2

For the next assay, the system named is Escherichia coli 255. The assay can be described thus: MIC on beta-lactamase producing strain Escherichia coli 255 (Table IV). The conditions noted are these: Escherichia coli 255, producing beta-lactamases; read-out: MIC. As to the method:
as §4, §5

The test system of a further assay is Escherichia coli SOL 90. The assay can be described thus: MIC, in vitro dilution method, Escherichia coli SOL 90 (Table III). The conditions noted are these: SOL90; Escherichia coli SOL 90; dilution method; read-out: MIC. Put shortly:
as §3

Assay [4] concerns Serrtia liquefaciens SL/326 A. In words: MIC on beta-lactamase producing strain Serratia liquefaciens SL/326 A (Table IV). As to the method: as §4, §5
For another assay, the system named is Enterobacter RO 154. The assay can be described thus: MIC, in vitro dilution method, Enterobacter RO 154 (Table III). The conditions noted are these: RO154; Enterobacter RO 154; dilution method; read-out: MIC. The method, boiled down:
as §3

The term MIC denotes the smallest concentration in the dilution series that meets the test's criterion for growth inhibition.

On to `CC(C)(O/N=C(\C(=O)NC1C(=O)N2C(C(=O)O)=C(COC(=O)C3(N)CCCC3)C[S+]([O-])C12)c1csc(N)n1)C(=O)O` (centres unmarked) [41 975], for which the MIC was determined as 0.5 µg/mL (≈ 0.816 µM) with Citrobacter RL 49; 0.5 µg/mL (≈ 0.816 µM) in assay [1]; 0.5 µg/mL (≈ 0.816 µM) in the assay on Klebsiella RO 30; 0.5 µg/mL (≈ 0.816 µM) with Escherichia coli 255/L.7; 8 µg/mL (≈ 13.1 µM) in the assay on Pseudomonas RL 112; 0.5 µg/mL (≈ 0.816 µM) in assay [2]. In addition, the minimal inhibitory concentration (MIC) in assay [3] is no more than 0.12 µg/mL; with Serratia RL 72, 4 µg/mL (≈ 6.53 µM); with Escherichia coli 255, 0.5 µg/mL (≈ 0.816 µM); with Escherichia coli SOL 90, 0.25 µg/mL (≈ 0.408 µM); in assay [4] it was 0.25 µg/mL (≈ 0.408 µM); with Enterobacter RO 154, 8 µg/mL (≈ 13.1 µM).
Regarding `CC(N)CC(=O)OCC1=C(C(=O)O)N2C(=O)C(NC(=O)C(=NOC(C)(C)C(=O)O)c3csc(N)n3)C2[S+]([O-])C1` (centres unmarked) [42 024], the MIC in the assay on Citrobacter RL 49 was 0.5 µg/mL (≈ 0.852 µM); in [1], 0.25 µg/mL (≈ 0.426 µM); in the assay on Klebsiella RO 30, 0.25 µg/mL (≈ 0.426 µM); in the assay with Escherichia coli 255/L.7 it was no more than 0.12 µg/mL; in the assay with Pseudomonas RL 112, 4 µg/mL (≈ 6.82 µM); in assay [2], 0.25 µg/mL (≈ 0.426 µM). Further, the MIC in assay [3] came out at 0.06 µg/mL (≈ 0.102 µM); with Serratia RL 72 it was 0.5 µg/mL (≈ 0.852 µM); in the assay with Escherichia coli 255, 0.25 µg/mL (≈ 0.426 µM); with Escherichia coli SOL 90, 0.5 µg/mL (≈ 0.852 µM); in [4] it was 0.25 µg/mL (≈ 0.426 µM); with Enterobacter RO 154, 2 µg/mL (≈ 3.41 µM).
Consider `CC(N)CCC(=O)OCC1=C(C(=O)O)N2C(=O)C(NC(=O)C(=NOC(C)(C)C(=O)O)c3csc(N)n3)C2[S+]([O-])C1` (centres unmarked) [42 027], for which the minimal inhibitory concentration (MIC) in the assay with Citrobacter RL 49 is 0.25 µg/mL (≈ 0.416 µM); in [1], no more than 0.12 µg/mL; with Klebsiella RO 30, 0.25 µg/mL (≈ 0.416 µM); with Escherichia coli 255/L.7 it was 0.06 µg/mL (≈ 0.0999 µM); against Pseudomonas RL 112 it was 4 µg/mL (≈ 6.66 µM); in assay [2], 0.12 µg/mL (≈ 0.2 µM). Also, the minimum inhibitory concentration (MIC) was no more than 0.06 µg/mL in assay [3]; 0.5 µg/mL (≈ 0.832 µM) in the assay with Serratia RL 72; 0.12 µg/mL (≈ 0.2 µM) with Escherichia coli 255; 0.25 µg/mL (≈ 0.416 µM) with Escherichia coli SOL 90; 0.25 µg/mL (≈ 0.416 µM) in [4]; 2 µg/mL (≈ 3.33 µM) in the assay with Enterobacter RO 154.
`CNCCCC(=O)OCC1=C(C(=O)O)N2C(=O)C(NC(=O)/C(=N\OC(C)(C)C(=O)O)c3csc(N)n3)C2[S+]([O-])C1` (centres unmarked) [42 028]: the MIC is 0.5 µg/mL (≈ 0.832 µM) in the assay with Citrobacter RL 49; no more than 0.12 µg/mL in [1]; 0.25 µg/mL (≈ 0.416 µM) with Klebsiella RO 30; 0.12 µg/mL (≈ 0.2 µM) with Escherichia coli 255/L.7; 4 µg/mL (≈ 6.66 µM) against Pseudomonas RL 112; 0.25 µg/mL (≈ 0.416 µM) in assay [2]. Moreover, the minimal inhibitory concentration (MIC) is no more than 0.06 µg/mL in assay [3]; 0.5 µg/mL (≈ 0.832 µM) with Serratia RL 72; 0.12 µg/mL (≈ 0.2 µM) in the assay with Escherichia coli 255; 0.25 µg/mL (≈ 0.416 µM) in the assay on Escherichia coli SOL 90; 0.12 µg/mL (≈ 0.2 µM) in assay [4]; 2 µg/mL (≈ 3.33 µM) with Enterobacter RO 154.
Regarding `Nc1nc(/C(=N/OC2(C(=O)O)CCC2)C(=O)NC2C(=O)N3C(C(=O)O)=C(COC(=O)CC4CCCNC4)C[S+]([O-])C23)cs1` (centres unmarked) [42 472], the MIC in the assay on Citrobacter RL 49 is no more than 0.125 µg/mL; in assay [1], no more than 0.125 µg/mL; with Klebsiella RO 30, no more than 0.125 µg/mL; against Pseudomonas RL 112 it was 4 µg/mL (≈ 6.26 µM); in the assay on Serratia RL 72 it was 0.25 µg/mL (≈ 0.391 µM); with Escherichia coli SOL 90 it was 0.25 µg/mL (≈ 0.391 µM). Besides, the MIC in the assay with Enterobacter RO 154 was no more than 0.125 µg/mL.
Regarding `Nc1nc(/C(=N/OC2(C(=O)O)CCC2)C(=O)NC2C(=O)N3C(C(=O)O)=C(COC(=O)CC4CCNCC4)C[S+]([O-])C23)cs1` (centres unmarked) [42 473], the MIC in the assay with Citrobacter RL 49 was no more than 0.125 µg/mL; in [1] it was no more than 0.125 µg/mL; in the assay on Klebsiella RO 30, no more than 0.125 µg/mL; against Pseudomonas RL 112, 4 µg/mL (≈ 6.26 µM); against Serratia RL 72, 0.25 µg/mL (≈ 0.391 µM); with Escherichia coli SOL 90, 0.25 µg/mL (≈ 0.391 µM). In addition, the MIC in the assay on Enterobacter RO 154 is no more than 0.125 µg/mL.
In the case of `CNCc1cccc(C(=O)OCC2=C(C(=O)O)N3C(=O)C(NC(=O)/C(=N\OC(C)(C)C(=O)O)c4csc(N)n4)C3[S+]([O-])C2)c1` (centres unmarked) [42 537], the MIC with Citrobacter RL 49 is 0.25 µg/mL (≈ 0.385 µM); in assay [1] it was no more than 0.125 µg/mL; in the assay on Klebsiella RO 30, 0.25 µg/mL (≈ 0.385 µM); against Pseudomonas RL 112, 8 µg/mL (≈ 12.3 µM); against Serratia RL 72, 0.5 µg/mL (≈ 0.771 µM); in the assay with Escherichia coli SOL 90, 0.25 µg/mL (≈ 0.385 µM). Moreover, the MIC in the assay on Enterobacter RO 154 is 0.25 µg/mL (≈ 0.385 µM).
On to `CCNCc1cccc(C(=O)OCC2=C(C(=O)O)N3C(=O)C(NC(=O)/C(=N\OC(C)(C)C(=O)O)c4csc(N)n4)C3[S+]([O-])C2)c1` (centres unmarked) [42 538], for which the MIC in the assay with Citrobacter RL 49 is 0.25 µg/mL (≈ 0.377 µM); in [1] it was no more than 0.125 µg/mL; in the assay with Klebsiella RO 30, 0.25 µg/mL (≈ 0.377 µM); in the assay on Pseudomonas RL 112, 8 µg/mL (≈ 12.1 µM); in the assay with Serratia RL 72 it was 0.5 µg/mL (≈ 0.754 µM); with Escherichia coli SOL 90, 0.5 µg/mL (≈ 0.754 µM). Moreover, in the assay on Enterobacter RO 154, the minimum inhibitory concentration (MIC) was determined as 0.25 µg/mL (≈ 0.377 µM).
Regarding `Cc1c(CN)cccc1C(=O)OCC1=C(C(=O)O)N2C(=O)C(NC(=O)C(=NOC3(C(=O)O)CCC3)c3csc(N)n3)C2[S+]([O-])C1` (centres unmarked) [42 540], the MIC in the assay with Citrobacter RL 49 was 0.125 µg/mL (≈ 0.189 µM); in [1], no more than 0.125 µg/mL; in the assay with Klebsiella RO 30 it was no more than 0.125 µg/mL; against Pseudomonas RL 112, 4 µg/mL (≈ 6.05 µM); with Serratia RL 72, 0.25 µg/mL (≈ 0.378 µM); with Escherichia coli SOL 90, 0.25 µg/mL (≈ 0.378 µM). Also, the MIC in the assay with Enterobacter RO 154 was no more than 0.125 µg/mL.
